Tested on: Plasmopara viticola
Test: Activity against peronospora of grapevines caused by Plasmopara viticola (protective spray on potted vines)
Type: in vivo
Conditions: individual active compound, grapevine leaves cv. Müller-Thurgau, untreated control 81% infection
Experimental: The active compounds, separately or jointly, were prepared as a stock solution comprising 0.25% by weight of active compound in acetone or DMSO. 1% by weight of the emulsifier Uniperol® EL (wetting agent having emulsifying and dispersant action based on ethoxylated alkylphenols) was added to this solution, and the mixture was diluted with water to the desired concentration.
Use example—Activity against peronospora of grapevines caused by Plasmopara viticola
Leaves of potted vines of the cultivar “Müller-Thurgau” were sprayed to runoff point with an aqueous suspension having the concentration of active compound stated below. The next day, the undersides of the leaves were inoculated with an aqueous zoospore suspension of Plasmopara viticola. The grapevines were then initially placed in a water-vapor-saturated chamber at 24° C. for 48 hours and then in a greenhouse at 20-30° C. for 5 days. After this period of time, the plants were again placed in a humid chamber for 16 hours to promote sporangiophore eruption. The extent of the development of the disease on the undersides of the leaves was then determined visually.
The visually determined percentages of infected leaf areas were converted into efficacies in % of the untreated control:
The efficacy (E) is calculated as follows using Abbot's formula: E=(1−α/β)−100 α corresponds to the fungicidal infection of the treated plants in % and β corresponds to the fungicidal infection of the untreated (control) plants in %
An efficacy of 0 means that the infection level of the treated plants corresponds to that of the untreated control plants; an efficacy of 100 means that the treated plants were not infected.
The expected efficacies of mixtures of active compounds were determined using Colby's formula (Colby, S. R. “Calculating synergistic and antagonistic responses of herbicide combinations”, Weeds, 15, 20-22, 1967) and compared with the observed efficacies.
Colby's formula: E=x+y−x·y/100 E expected efficacy, expressed in % of the untreated control, when using the mixture of the active compounds A and B at the concentrations a and b x efficacy, expressed in % of the untreated control, when using the active compound A at the concentration a y efficacy, expressed in % of the untreated control, when using the active compound B at the concentration b

Row | Compound | Efficacy in % of the untreated control (1 ppm in the spray liquor) | Efficacy in % of the untreated control (4 ppm in the spray liquor) | Efficacy in % of the untreated control (16 ppm in the spray liquor)
1 | N#Cc1sc2c(=O)c3ccccc3c(=O)c=2sc1C#N [II (dithianon), 5,10-dioxo-5,10-dihydronaphtho[2,3-b][1,4]dithiine-2,3-dicarbonitrile] | 1% | 13% | 13%
2 | CC1CCN(c2c(-c3c(F)cccc3Cl)c(Cl)nc3ncnn23)CC1 [Comparison A] | – | 13% | –
3 | CC1CCN(c2c(-c3c(F)cc(F)cc3F)c(Cl)nc3ncnn23)CC1 [I, 5-chloro-7-(4-methylpiperidin-1-yl)-6-(2,4,6-trifluorophenyl)-[1,2,4]triazolo[1,5-a]pyrimidine] | – | 51% | –
4 | C[C@H](Nc1c(-c2c(F)cc(F)cc2F)c(Cl)nc2ncnn12)C(F)(F)F [Comparison B] | – | 13% | –

Reference: patent publication US20060189634A1, “Fungicide mixtures” (priority 2003, published 2006)
